Measurements published in PubChem BioAssay AID1159562 (GlaxoSmithKline (GSK), 2015).
Active and inactive are the calls of the source. The rule behind the calls is not given here.

Tested on: Trypanosoma brucei growth inhibition, luminescence
Assay: antitrypanosomal activity against T. brucei – luminescence (AID 1159562);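 note: parasites grew with compound for 24 h before the luminescence read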

| Structure (SMILES) | IC50 |
| --- | --- |
| CC(C)(C)C(=O)NCCc1csc(-c2ccc(F)cc2)n1 | 790 nM |
| CS(=O)(=O)c1ccc(Nc2nccc(-c3cnn4ncccc34)n2)cc1 | 200 nM |
| Cn1ccnc1-c1nc(NCc2ccccc2Cl)cc(C2CC2)n1 | 1600 nM |
| CC1(C)CCC(=Cc2ccc(Cl)cc2)CC1(O)Cn1ccnc1 (centres undefined) | 25000 nM |
| CCCN(Cc1ccc(OC)c(OC)c1)Cc1cc(=O)c2c(C)cc(C)cc2[nH]1 | > 40000 nM (inactive) |
| O=C(NCCc1ccccc1Cl)c1cccn1-c1cccnc1 | > 40000 nM (inactive) |
| CN1CCC(N(C)c2nccc(N3CCN(C(=O)c4cccc(-c5cccnc5)c4)CC3)n2)CC1 | 1000 nM |
| Cc1nn2c(NCCCO)c3c(nc2c1-c1cccs1)CCC3 | 400 nM |
| O=C(NCC1CCCCC1)c1cc(=O)c2ccccc2o1 | 1300 nM |
| O=c1[nH]c(C=Cc2cccc(OCCOc3ccccc3)c2)nc(O)c1[N+](=O)[O-] | 10000 nM |
| CCC(=O)N1N=C(c2ccc3c(c2)CCCC3)Sc2c1ncn2C(=O)CC | 20000 nM |
| N#Cc1ccccc1S(=O)(=O)N1CCN(C(=O)CNC(=O)c2ccc3c(c2)OCO3)CC1 | > 40000 nM (inactive) |
| O=C(CN(Cc1ccccn1)Cc1ccccn1)NCc1ccc(-c2csnn2)cc1 | 7900 nM |
| O=C(Nc1cccc(Cl)c1)N1CCCCC1c1cccnc1 (centres undefined) | > 40000 nM (inactive) |
| CCCCCNC(=O)c1c[nH]c2ccc(S(=O)(=O)N(C)c3ccc(OCC)cc3)cc2c1=O | 250 nM |
| COc1ccc(S(=O)(=O)NC(C)C)cc1Nc1ncc(-c2cccc(F)c2)cn1 | > 40000 nM (inactive) |
| Cc1[nH]n2c(=O)c3c(nc2c1-c1ccc(F)cc1)CCCC3 | 630 nM |
| CC(C)(C)Nc1nc(Nc2ccc3c(c2)CS(=O)(=O)C3)nc2[nH]ccc12 | 5000 nM |
| COc1ncc(-c2ccc3nccc(-c4ccncc4)c3c2)cc1NS(C)(=O)=O | 1000 nM |
| COc1cc(OC)cc(C(NS(=O)(=O)c2ccc(Cl)c(C(F)(F)F)c2)c2nccn2C)c1 (centres undefined) | 7900 nM |
| C[C@@H](Oc1cc(-n2cnc3ccc(O[C@H]4CCNC4)cc32)sc1C(N)=O)c1ccccc1Cl | 790 nM |
| CNC(=O)Oc1ccc(C(=O)NCc2ccccc2)cc1OC(=O)NC | 400 nM |
| COc1ccc(S(=O)(=O)Nc2ccc(CN3CCN(C(=O)c4cccc(C#N)c4)CC3)cc2)cc1 | 630 nM |
| COc1cccc(C(=O)[C@H]2C[C@@H]2CN(Cc2cccnc2)Cc2cccnc2)c1 | > 40000 nM (inactive) |
| COc1ncc(-c2ccc3nccc(-c4ccncc4)c3c2)cc1NS(=O)(=O)C1CC1 | 400 nM |
| CCOC(=O)c1cn[nH]c1S(=O)(=O)N1CCC1c1ccccc1 (centres undefined) | 790 nM |

| Structure (SMILES) | IC50 |
| --- | --- |
| Cc1ccc(NC(=O)c2ccnc(N3CCCC3)c2)cc1-c1cc(C(N)=O)ccc1C | 250 nM |
| CC1CCCN(S(=O)(=O)c2ccc(C(=O)Nc3nc(-c4ccccn4)cs3)cc2)C1 (centres undefined) | 400 nM |
| O=C(Nc1ccccc1)Nc1nc(-c2ccccn2)cs1 | 1000 nM |
| O=C(CC1(O)C(=O)N(Cc2ccccc2)c2ccc(Br)cc21)c1cccnc1 (centres undefined) | 790 nM |
| COc1ccc(-c2cnc(NC(=O)c3cc(-c4ccccn4)n[nH]3)n2C)cc1 | 10000 nM |
| COc1cccc(C(=O)[C@H]2C[C@@H]2CN(Cc2ccccn2)Cc2ccccn2)c1 | 20000 nM |
| O=[N+]([O-])c1ccc(-c2nnn(-c3cccnc3)n2)o1 | 500 nM |
| Cc1ccc2c(c1)-c1onc(C(=O)N3CCCCC3c3cccnc3)c1CO2 (centres undefined) | > 40000 nM (inactive) |
| O=c1cc(NCCCNCc2cc(C(F)(F)F)cs2)[nH]c2ccccc12 | 400 nM |
| Cc1ccc(Nc2nc(N)nc(CNC(c3nc4ccccc4[nH]3)C(C)C)n2)cc1 (centres undefined) | 5000 nM |
| COc1cccc(Nc2cc(C)nc(-c3ccccn3)n2)c1 | > 40000 nM (inactive) |
| COc1ccc(NS(=O)(=O)c2cc(NC(=O)Cc3ccc(C)cc3)ccc2N2CCOCC2)cc1 | 7900 nM |
| Cc1cc(C)nc(N2CCC(N(Cc3cccnc3)C(=O)c3cccc(C#N)c3)CC2)n1 | > 40000 nM (inactive) |
| CCOc1ccc(CN(C)Cc2nc(N)nc(Nc3ccc(C)cc3)n2)cc1 | 2000 nM |
| COc1cnc2ccc(=O)n(CCN3CCC(NC(=O)c4ccc(Cl)cc4)CC3)c2c1 | 100 nM |
| N#Cc1cccc(Cc2cc(Nc3cc(C4CC4)[nH]n3)nc(N3CC[C@H]3C(N)=O)n2)c1 | 63 nM |
| COc1ccc2ncc(=O)n(CCN3CC[C@H](NCc4ncc(Cl)c5[nH]ncc45)[C@H](O)C3)c2n1 | 500 nM |
| CCS(=O)(=O)c1cccc(C(=O)Nc2nc(-c3ccccn3)cs2)c1 | 630 nM |
| CCOc1ccc(N(C)S(=O)(=O)c2ccc3[nH]cc(C(=O)NC4CCCC4)c(=O)c3c2)cc1 | 500 nM |
| O=C(Cc1ccc2c(c1)CCC2)Nc1n[nH]c(-c2ccccn2)n1 | > 40000 nM (inactive) |
| CCC1Oc2cc(S(=O)(=O)N(C)CC(=O)N3CCc4ccccc4C3)c(C)cc2NC1=O (centres undefined) | 32000 nM |
| NS(=O)(=O)c1ccc(Nc2nccc(-c3cnn4ncccc34)n2)cc1 | 160 nM |
| NC(=O)c1cc(NC(=O)c2ccccc2COc2ccccc2)ccc1Cl | > 40000 nM (inactive) |
| O=C(c1ccc(Cl)cc1)c1ccc(OC(=O)N2CCOCC2)cc1 | > 40000 nM (inactive) |
| O=S(=O)(NCC(c1cccnc1)N1CCN(c2ccccc2F)CC1)c1ccc(F)cc1 (centres undefined) | > 40000 nM (inactive) |
| Oc1cccnc1-c1n[nH]c(Cc2ccccc2)n1 | 10000 nM |

| Structure (SMILES) | IC50 |
| --- | --- |
| Cn1cncc1CN1CCC2(CC1)COC(Cc1ccccc1)C2 (centres undefined) | > 40000 nM (inactive) |
| CCN(C)Cc1ccc(N2CCC(NS(=O)(=O)c3ccc4c(c3)CCO4)CC2)nc1 | 40000 nM |
| Cc1cc(N(C)C)nc(Nc2ccccc2C)n1 | > 40000 nM (inactive) |
| CCC(=O)Nc1ccc(-c2nc3ccc(Cl)cc3[nH]2)cc1 | > 40000 nM (inactive) |
| CC(C)(C)C(=O)Nc1cc(C2CC2)nn1-c1nc2c(c(=O)[nH]1)CCCC2 | 200 nM |
| Cc1occc1C(=O)Nc1ccccc1C(=O)Nc1nccs1 | 500 nM |
| Cn1c(CC(=O)NNC(=O)c2ccc3ccccc3n2)nc2ccccc21 | 6300 nM |
| O=C(NCCNc1noc(-c2ccc([N+](=O)[O-])cc2)n1)c1ccc(Cl)cc1 | > 40000 nM (inactive) |
| O=c1cc(NCCCNC2CCOc3c(I)cc(Cl)cc32)[nH]c2ccccc12 (centres undefined) | 20 nM |
| O=C(Nc1ccc(Br)cn1)c1ccc(Cn2cnc([N+](=O)[O-])n2)cc1 | 3200 nM |
| CC(C)Oc1cccc(N2CCC(C(=O)N3CCCN(C(C)C)CC3)CC2)c1 | > 40000 nM (inactive) |
| O=C(NCc1ccc(-n2cccc2)cc1)c1nc(Cn2ccc([N+](=O)[O-])n2)no1 | > 40000 nM (inactive) |
| Nc1nc(-c2ccccn2)nc(N)c1Cc1c(F)cccc1Cl | 2000 nM |
| OC[C@@H](Nc1nccc(-c2c(-c3ccc(F)cc3)ncn2C2CCNCC2)n1)c1ccccc1 | 630 nM |
| O=C(Nc1nccs1)c1ccccc1Cn1cc([N+](=O)[O-])cn1 | 500 nM |
| Cc1nc2c(-c3nc(-c4ccc(N)cc4)n[nH]3)cccn2c1C | 25000 nM |
| Cc1cccc(NS(=O)(=O)c2ccc3c(c2)C(=O)c2cc(S(=O)(=O)Nc4cccc(C)c4C)ccc2-3)c1C | 10000 nM |
| O=C(Nc1ccc(Br)c(Cl)c1)Nc1ccc2c(c1)OCO2 | 13000 nM |
| CS(=O)(=O)c1ccc(CC(=O)Nc2nc(-c3ccc(Cl)s3)cs2)cc1 | > 40000 nM (inactive) |
| CCN(Cc1cccs1)C(=O)CSc1nnc(-c2ccc3c(c2)OCO3)o1 | > 40000 nM (inactive) |
| N#Cc1ccc(S(=O)(=O)N2CCC3(CCN(c4ccccc4)C3=O)CC2)cc1 | > 40000 nM (inactive) |
| CCCCc1cc(Nc2cc(C3CCC3)[nH]n2)nc(N2CCC2C(N)=O)n1 (centres undefined) | 160 nM |
| O=C(NCCc1cccnc1)c1ccc(-c2ccccc2F)o1 | > 40000 nM (inactive) |
| O=C(Nc1ccccc1C(=O)Nc1ccccn1)c1ccco1 | 500 nM |
| Cc1ccc(NC(=O)c2ccc([N+](=O)[O-])s2)cc1S(=O)(=O)N1CCOCC1 | 790 nM |
| CN(C)CCN(C)Cc1ccc(F)cc1NS(=O)(=O)c1ccc(Cl)c(Cl)c1 | 5000 nM |

| Structure (SMILES) | IC50 |
| --- | --- |
| CN(Cc1nc2ccccc2s1)C(=O)C=Cc1cc2ccccc2o1 | > 40000 nM (inactive) |
| Cc1cc2ncn(-c3ccc([N+](=O)[O-])cc3C#N)c2cc1C | > 40000 nM (inactive) |
| CN(Cc1nc2ccc(C(=O)NCC3CCCCC3)cc2[nH]1)C1CCCc2cccnc21 (centres undefined) | 320 nM |
| CC(C)c1cc(C(=O)N2CCCC(c3cc4ncccc4[nH]3)C2)on1 (centres undefined) | > 40000 nM (inactive) |
| Cc1nc(C(=O)Nc2ccc3c(c2)OCO3)nn1-c1ccc(F)cc1 | > 40000 nM (inactive) |
| Cc1cc(NC(=O)C2CC2)ccc1OC1CCN(Cc2ccco2)CC1 | 250 nM |
| O=C(NC1C(=O)N(c2ccccc2)C1c1cccnc1)c1ccc(Cl)s1 (centres undefined) | > 40000 nM (inactive) |
| COc1cc(Nc2nccc(Nc3onc(C)c3C)n2)cc(S(=O)(=O)C2CCOCC2)c1 | 500 nM |
| CC(C)C[C@H](NC(=O)c1csc(-c2cccs2)n1)C(=O)NC1(C#N)CC1 | 100 nM |
| CCCCN(C(=O)c1ccc(NC(=O)C(C)C)cc1)c1ccccc1 | > 40000 nM (inactive) |
| O=c1cc(CSc2ccc(Cl)cc2)nc(-c2ccccn2)[nH]1 | 1000 nM |
| O=C(c1ccccc1)N1CCC(C(=O)N2CCC(Oc3ccccc3Cl)CC2)CC1 | 1000 nM |
| O=c1cc(NCCCNCc2c[nH]c3ccc(Br)cc23)[nH]c2ccccc12 | 790 nM |
| Oc1c(-c2n[nH]c(CCc3ccccc3)n2)ncc2cccnc12 | 1600 nM |
| Cc1cc(C)c(C#N)c(SCC(=O)c2ccc3c(c2)OCO3)n1 | 16000 nM |
| Cn1c(CN2CCN(c3ncc(C(F)(F)F)cc3Cl)CC2)nc2ccncc21 | > 40000 nM (inactive) |
| CC(C(=O)Nc1ccc(Br)cc1)N1CCN(c2ccc([N+](=O)[O-])cc2)CC1 (centres undefined) | > 40000 nM (inactive) |
| Cc1nccn1C1CCCN(C(=O)c2cc3c(F)cccc3s2)C1 (centres undefined) | > 40000 nM (inactive) |
| O=C(NCCc1cccnc1)c1csc(-c2ccccc2)n1 | > 40000 nM (inactive) |
| NS(=O)(=O)c1ccc(Nc2ncc3cccc(OC4CCNCC4)c3n2)cc1 | 320 nM |
| COCc1cnc2c(c1SCc1c(F)cccc1Cl)c(=O)n(C)c(=O)n2C | > 40000 nM (inactive) |
| Cc1cnc(Nc2cc(Cc3ccccc3)nc(NC3CCC(O)CC3)n2)s1 (centres undefined) | 40 nM |
| Nc1nccc(-c2csc(Nc3ccc(Cl)cc3)n2)n1 | > 40000 nM (inactive) |
| O=C(NCC(c1cccnc1)N1CCc2ccccc2C1)C(=O)Nc1cccc(Cl)c1 (centres undefined) | 20000 nM |
| O=C(CSc1ccc(-c2ccccn2)nn1)Nc1ccc(Cl)cc1 | > 40000 nM (inactive) |
| CN(Cc1cc2ccccc2s1)c1ncc2c(N)nc(N)nc2n1 | 25000 nM |
